Experimental data from PubChem BioAssay AID2060900 (Molecular Pharmacology Branch, DTP, NCI, 2025).
Each block holds one molecule with its values, some of them ahead of it.

Tested on: 521955-158-R2-J5-PDC complex spheroids, viability
Experiment: Anticancer human tumor 521955-158-R2-J5-PDC patient-derived pancreatic carcinoma cell line growth inhibition [RAS]
Conditions: for IC50: curve of first compound; for viability, T/C: stronger effect = lower value
How it was run: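 Multi-cell-type spheroids: tumor cells plus HUVEC endothelial cells and mesenchymal stem cells. RAS-pathway inhibitors were combined with targeted agents, each dosed in half-log steps down from clinical Cmax, or from 10 microM when Cmax was unknown.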
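Also: compound exposure lasted seven days before the viability read.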
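For viability, T/C in this document: spheroids also contain HUVEC endothelial cells and mesenchymal stem cells as stroma.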

IC50 (second compound 0.00316 µM): > 300 nM | IC50 (second compound 0.01 µM): > 300 nM | IC50 (second compound 0.0316 µM): > 300 nM | IC50 (second compound 0.1 µM): > 300 nM | IC50 (second compound 0.316 µM): > 300 nM | IC50 (second compound 1 µM): > 300 nM
SMILES: CC1(C)CCC(Nc2ncc(C(F)(F)F)c(-c3c[nH]c4c(P(C)(C)=O)c(C#N)ccc34)n2)CN1 (centres undefined) + C=CC(=O)N1CCN(c2nc(OCC3CCCN3C)nc3c(F)c(-c4nc(N)cc(C)c4C(F)(F)F)c(Cl)cc23)C(C)C1
viability, T/C (second compound 0.00316 µM, first compound 0.000949 µM): 80.7% | viability, T/C (second compound 0.00316 µM, first compound 0.003 µM): 73.7% | viability, T/C (second compound 0.00316 µM, first compound 0.00949 µM): 67.7% | viability, T/C (second compound 0.00316 µM, first compound 0.03 µM): 51.1% | viability, T/C (second compound 0.00316 µM, first compound 0.0949 µM): 49.5% | viability, T/C (second compound 0.00316 µM, first compound 0.3 µM): 53.3% | viability, T/C (second compound 0.01 µM, first compound 0.000949 µM): 81.2% | viability, T/C (second compound 0.01 µM, first compound 0.003 µM): 78.5% | viability, T/C (second compound 0.01 µM, first compound 0.00949 µM): 52.6% | viability, T/C (second compound 0.01 µM, first compound 0.03 µM): 53% | viability, T/C (second compound 0.01 µM, first compound 0.0949 µM): 58.3% | viability, T/C (second compound 0.01 µM, first compound 0.3 µM): 60.4% | viability, T/C (second compound 0.0316 µM, first compound 0.000949 µM): 75.4% | viability, T/C (second compound 0.0316 µM, first compound 0.003 µM): 78.7% | viability, T/C (second compound 0.0316 µM, first compound 0.00949 µM): 57.5% | viability, T/C (second compound 0.0316 µM, first compound 0.03 µM): 55.8% | viability, T/C (second compound 0.0316 µM, first compound 0.0949 µM): 73% | viability, T/C (second compound 0.0316 µM, first compound 0.3 µM): 53.8% | viability, T/C (second compound 0.1 µM, first compound 0.000949 µM): 90% | viability, T/C (second compound 0.1 µM, first compound 0.003 µM): 86.3% | viability, T/C (second compound 0.1 µM, first compound 0.00949 µM): 57.9% | viability, T/C (second compound 0.1 µM, first compound 0.03 µM): 64.2% | viability, T/C (second compound 0.1 µM, first compound 0.0949 µM): 65.8% | viability, T/C (second compound 0.1 µM, first compound 0.3 µM): 56.9% | viability, T/C (second compound 0.316 µM, first compound 0.000949 µM): 84.5% | viability, T/C (second compound 0.316 µM, first compound 0.003 µM): 76.5% | viability, T/C (second compound 0.316 µM, first compound 0.00949 µM): 51.3% | viability, T/C (second compound 0.316 µM, first compound 0.03 µM): 65.3% | viability, T/C (second compound 0.316 µM, first compound 0.0949 µM): 67% | viability, T/C (second compound 0.316 µM, first compound 0.3 µM): 49.2% | viability, T/C (second compound 1 µM, first compound 0.000949 µM): 106% | viability, T/C (second compound 1 µM, first compound 0.003 µM): 77.5% | viability, T/C (second compound 1 µM, first compound 0.00949 µM): 56.3% | viability, T/C (second compound 1 µM, first compound 0.03 µM): 51.9% | viability, T/C (second compound 1 µM, first compound 0.0949 µM): 63.9% | viability, T/C (second compound 1 µM, first compound 0.3 µM): 55.4%

IC50 (second compound 0.0316 µM): < 31.6 nM | IC50 (second compound 0.1 µM): 35.2 nM | IC50 (second compound 0.316 µM): < 31.6 nM | IC50 (second compound 1 µM): < 31.6 nM | IC50 (second compound 3.16 µM): < 31.6 nM | IC50 (second compound 10 µM): < 31.6 nM
SMILES: NC1c2ccccc2OC12CCN(c1cnc3c(N4CCCc5ncccc54)n[nH]c3n1)CC2 (centres undefined) + C#Cc1c(F)ccc2cc(O)cc(-c3ncc4c(N5CC6CCC(C5)N6)nc(OCC56CCCN5CC(F)C6)nc4c3F)c12
viability, T/C (second compound 0.0316 µM, first compound 0.0316 µM): 49.8% | viability, T/C (second compound 0.0316 µM, first compound 0.1 µM): 38.6% | viability, T/C (second compound 0.0316 µM, first compound 0.316 µM): 32.1% | viability, T/C (second compound 0.0316 µM, first compound 1 µM): 19.2% | viability, T/C (second compound 0.0316 µM, first compound 3.16 µM): 16.3% | viability, T/C (second compound 0.0316 µM, first compound 10 µM): 9.96% | viability, T/C (second compound 0.1 µM, first compound 0.0316 µM): 50.6% | viability, T/C (second compound 0.1 µM, first compound 0.1 µM): 42.4% | viability, T/C (second compound 0.1 µM, first compound 0.316 µM): 26.2% | viability, T/C (second compound 0.1 µM, first compound 1 µM): 16.9% | viability, T/C (second compound 0.1 µM, first compound 3.16 µM): 14.2% | viability, T/C (second compound 0.1 µM, first compound 10 µM): 10.4% | viability, T/C (second compound 0.316 µM, first compound 0.0316 µM): 44% | viability, T/C (second compound 0.316 µM, first compound 0.1 µM): 35.5% | viability, T/C (second compound 0.316 µM, first compound 0.316 µM): 21.9% | viability, T/C (second compound 0.316 µM, first compound 1 µM): 12.9% | viability, T/C (second compound 0.316 µM, first compound 3.16 µM): 12.2% | viability, T/C (second compound 0.316 µM, first compound 10 µM): 7.43% | viability, T/C (second compound 1 µM, first compound 0.0316 µM): 35% | viability, T/C (second compound 1 µM, first compound 0.1 µM): 31.7% | viability, T/C (second compound 1 µM, first compound 0.316 µM): 23.9% | viability, T/C (second compound 1 µM, first compound 1 µM): 13.1% | viability, T/C (second compound 1 µM, first compound 3.16 µM): 12.5% | viability, T/C (second compound 1 µM, first compound 10 µM): 8.41% | viability, T/C (second compound 3.16 µM, first compound 0.0316 µM): 32.1% | viability, T/C (second compound 3.16 µM, first compound 0.1 µM): 25.3% | viability, T/C (second compound 3.16 µM, first compound 0.316 µM): 17.8% | viability, T/C (second compound 3.16 µM, first compound 1 µM): 11.1% | viability, T/C (second compound 3.16 µM, first compound 3.16 µM): 5.56% | viability, T/C (second compound 3.16 µM, first compound 10 µM): 3.9% | viability, T/C (second compound 10 µM, first compound 0.0316 µM): 21.3% | viability, T/C (second compound 10 µM, first compound 0.1 µM): 16% | viability, T/C (second compound 10 µM, first compound 0.316 µM): 5.5% | viability, T/C (second compound 10 µM, first compound 1 µM): 4.22% | viability, T/C (second compound 10 µM, first compound 3.16 µM): 3.21% | viability, T/C (second compound 10 µM, first compound 10 µM): 1.47%
